According to PubChem BioAssay AID328 (DTP/NCI, 2004):
Where “and” joins values, the source holds several entries; their conditions need not be identical. Equal entries are not always repeated. Toxic doses and inconclusive results are not listed.

System: BDF1 mice, P388 leukemia ip, median survival T/C
Assay: NCI In Vivo Anticancer Drug Screen. Data for tumor model P388 Leukemia (intraperitoneal) in B6D2F1 (BDF1) mice
Conditions: endpoint: median survival time, higher = longer survival
Procedure, shortened: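 Steps: implant the tumour, treat one group with compound and another with vehicle, record survival, then divide treated by control.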

[1] = dose: 100.0 mg/kg/injection, schedule: Q04DX003 (ip), vehicle: Klucel (hydroxypropylcellulose) (HPC)
[2] = dose: 200.0 mg/kg/injection, schedule: Q04DX003 (ip), vehicle: Klucel (hydroxypropylcellulose) (HPC)
[3] = dose: 400.0 mg/kg/injection, schedule: Q04DX003 (ip), vehicle: Klucel (hydroxypropylcellulose) (HPC)
[4] = dose: 100.0 mg/kg/injection, schedule: Q04DX003 (ip), vehicle: saline
[5] = dose: 200.0 mg/kg/injection, schedule: Q04DX003 (ip), vehicle: saline
[6] = dose: 400.0 mg/kg/injection, schedule: Q04DX003 (ip), vehicle: saline
[7] = dose: 100.0 mg/kg/injection, schedule: Q01DX009 (ip), vehicle: saline
[8] = dose: 200.0 mg/kg/injection, schedule: Q01DX009 (ip), vehicle: saline
[9] = dose: 400.0 mg/kg/injection, schedule: Q01DX009 (ip), vehicle: saline
[10] = dose: 100.0 mg/kg/injection, schedule: Q04DX003 (ip), vehicle: saline with Tween-80
[11] = dose: 200.0 mg/kg/injection, schedule: Q04DX003 (ip), vehicle: saline with Tween-80
[12] = dose: 400.0 mg/kg/injection, schedule: Q04DX003 (ip), vehicle: saline with Tween-80

CC(C)OC(CCCl)c1ccccc1 (configuration not stated)
T/C (dose: 75.0 mg/kg/injection, schedule: Q01DX009 (ip), vehicle: Klucel (hydroxypropylcellulose) (HPC)): 95 % of control | T/C [1]: 100 % of control | T/C (dose: 150.0 mg/kg/injection, schedule: Q01DX009 (ip), vehicle: Klucel (hydroxypropylcellulose) (HPC)): 109 % of control | T/C [2]: 96 % of control | T/C (dose: 300.0 mg/kg/injection, schedule: Q01DX009 (ip), vehicle: Klucel (hydroxypropylcellulose) (HPC)): 109 % of control | T/C [3]: 100 % of control

COC1OC(C)C(O)C(O)[CH]1[Hg][O]C(C)=O (configuration not stated)
T/C (dose: 0.18 mg/kg/injection, schedule: Q01DX009 (ip), vehicle: saline): 111 % of control | T/C (dose: 0.37 mg/kg/injection, schedule: Q01DX009 (ip), vehicle: saline): 105 % of control | T/C (dose: 0.75 mg/kg/injection, schedule: Q01DX009 (ip), vehicle: saline): 94 % of control and 105 % of control | T/C (dose: 1.5 mg/kg/injection, schedule: Q01DX009 (ip), vehicle: saline): 86 % of control and 111 % of control

NC(=O)NCCCC(N)C(=O)O (configuration not stated)
T/C (dose: 50.0 mg/kg/injection, schedule: Q01DX010 (ip), vehicle: saline): 94 % of control | T/C (dose: 100.0 mg/kg/injection, schedule: Q01DX010 (ip), vehicle: saline): 94 % of control | T/C (dose: 200.0 mg/kg/injection, schedule: Q01DX010 (ip), vehicle: saline): 89 % of control

CCSCCSCC
T/C (dose: 100.0 mg/kg/injection, schedule: Q01DX009 (ip), vehicle: saline with Tween-80): 107 % of control | T/C [4]: 120 % of control | T/C (dose: 200.0 mg/kg/injection, schedule: Q01DX009 (ip), vehicle: saline with Tween-80): 103 % of control | T/C [5]: 115 % of control | T/C [6]: 120 % of control

CC(=O)Nc1ccc2c(O)cc(S(=O)(=O)O)cc2c1
T/C [7]: 107 % of control | T/C [8]: 98 % of control | T/C [9]: 114 % of control

N=C1N=C(C(F)(F)F)N=C1c1[nH]c(C(F)(F)F)nc1N
T/C (dose: 3.12 mg/kg/injection, schedule: Q01DX009 (ip), vehicle: water): 105 % of control | T/C (dose: 6.25 mg/kg/injection, schedule: Q01DX009 (ip), vehicle: water): 105 % of control | T/C (dose: 12.5 mg/kg/injection, schedule: Q01DX009 (ip), vehicle: water): 113 % of control | T/C (dose: 25.0 mg/kg/injection, schedule: Q01DX009 (ip), vehicle: water): 103 % of control and 105 % of control | T/C (dose: 25.0 mg/kg/injection, schedule: Q04DX003 (ip), vehicle: water): 100 % of control | T/C (dose: 50.0 mg/kg/injection, schedule: Q01DX009 (ip), vehicle: water): 92 % of control | T/C (dose: 50.0 mg/kg/injection, schedule: Q04DX003 (ip), vehicle: water): 99 % of control | T/C (dose: 100.0 mg/kg/injection, schedule: Q01DX009 (ip), vehicle: water): 106 % of control | T/C (dose: 100.0 mg/kg/injection, schedule: Q04DX003 (ip), vehicle: water): 98 % of control | T/C (dose: 200.0 mg/kg/injection, schedule: Q01DX009 (ip), vehicle: water): 97 % of control | T/C (dose: 200.0 mg/kg/injection, schedule: Q04DX003 (ip), vehicle: water): 94 % of control | T/C (dose: 400.0 mg/kg/injection, schedule: Q01DX009 (ip), vehicle: water): 104 % of control | T/C (dose: 400.0 mg/kg/injection, schedule: Q04DX003 (ip), vehicle: water): 109 % of control

C/C=C1\C(=O)OC23C=CC4C(C(=O)OC)C(O)OC(OC12)C43 (configuration not stated)
T/C (dose: 0.04 mg/kg/injection, schedule: Q01DX009 (ip), vehicle: saline): 95 % of control | T/C (dose: 0.2 mg/kg/injection, schedule: Q01DX009 (ip), vehicle: saline): 100 % of control | T/C (dose: 1.0 mg/kg/injection, schedule: Q01DX009 (ip), vehicle: saline + alcohol): 110 % of control

Cc1cccc2cc3c(ccc4ccccc43)c[n+]12
T/C (dose: 1.0 mg/kg/injection, schedule: Q01DX009 (ip), vehicle: Klucel (hydroxypropylcellulose) (HPC)): 109 % of control | T/C (dose: 2.0 mg/kg/injection, schedule: Q01DX009 (ip), vehicle: Klucel (hydroxypropylcellulose) (HPC)): 100 % of control | T/C (dose: 4.0 mg/kg/injection, schedule: Q01DX009 (ip), vehicle: Klucel (hydroxypropylcellulose) (HPC)): 100 % of control | T/C (dose: 8.0 mg/kg/injection, schedule: Q01DX009 (ip), vehicle: Klucel (hydroxypropylcellulose) (HPC)): 113 % of control

O=[N+]([O-])/C=C\c1cc2c3c(c1)CCCN3CCC2
T/C (dose: 3.13 mg/kg/injection, schedule: Q01DX001 (ip), vehicle: saline with Tween-80): 100 % of control | T/C (dose: 6.25 mg/kg/injection, schedule: Q01DX001 (ip), vehicle: saline with Tween-80): 100 % of control | T/C (dose: 12.5 mg/kg/injection, schedule: Q01DX001 (ip), vehicle: saline with Tween-80): 104 % of control

O=C(O)CC(SC(c1ccccc1)(c1ccccc1)c1ccccc1)C(=O)O (configuration not stated)
T/C (dose: 50.0 mg/kg/injection, schedule: Q04DX003 (ip), vehicle: Klucel (hydroxypropylcellulose) (HPC)): 86 % of control | T/C [1]: 86 % of control | T/C [2]: 95 % of control

CCCCC(=O)C1=C(O)C(Nc2ccccc2)=CC(=O)C1=Nc1ccccc1
T/C [10]: 98 % of control | T/C [11]: 103 % of control | T/C [12]: 100 % of control

COc1ccc(C2NC(=O)NC2=O)cc1OC (configuration not stated)
T/C (dose: 50.0 mg/kg/injection, schedule: Q01DX001 (ip), vehicle: saline sonified): 100 % of control | T/C (dose: 100.0 mg/kg/injection, schedule: Q01DX001 (ip), vehicle: saline sonified): 100 % of control | T/C (dose: 200.0 mg/kg/injection, schedule: Q01DX001 (ip), vehicle: saline sonified): 100 % of control

C[n+]1c2ccccc2c(Nc2ccc(NS(=O)(=O)CCCCN=C(N)N)cc2)c2ccc(N)cc21
T/C (dose: 3.0 mg/kg/injection, schedule: Q01DX009 (ip), vehicle: water): 205 % of control | T/C (dose: 6.0 mg/kg/injection, schedule: Q01DX009 (ip), vehicle: water): 116 % of control

CNC(=S)N/N=C/C(=O)c1ccco1
T/C (dose: 22.5 mg/kg/injection, schedule: Q01DX009 (ip), vehicle: saline with Tween-80): 104 % of control | T/C (dose: 45.0 mg/kg/injection, schedule: Q01DX009 (ip), vehicle: saline with Tween-80): 98 % of control | T/C (dose: 90.0 mg/kg/injection, schedule: Q01DX009 (ip), vehicle: saline with Tween-80): 105 % of control

Cc1nc2n(c1/C=N/NC(N)=S)CCS2
T/C (dose: 25.0 mg/kg/injection, schedule: Q01DX001 (ip), vehicle: Klucel (hydroxypropylcellulose) (HPC)): 102 % of control | T/C (dose: 50.0 mg/kg/injection, schedule: Q01DX001 (ip), vehicle: Klucel (hydroxypropylcellulose) (HPC)): 98 % of control | T/C (dose: 100.0 mg/kg/injection, schedule: Q01DX001 (ip), vehicle: Klucel (hydroxypropylcellulose) (HPC)): 98 % of control

O=C1C(=O)c2ccccc2C([O-])=C1[n+]1ccccc1
T/C (dose: 50.0 mg/kg/injection, schedule: Q04DX003 (ip), vehicle: saline with Tween-80): 109 % of control | T/C [10]: 95 % of control | T/C [11]: 90 % of control

COc1ccccc1NC(=O)Oc1c(C(C)C)cccc1C(C)C
T/C [1]: 95 % of control | T/C [2]: 87 % of control | T/C [3]: 100 % of control

C/C(=C\Cl)CO
T/C (dose: 56.25 mg/kg/injection, schedule: Q01DX001 (ip), vehicle: saline): 95 % of control | T/C (dose: 56.25 mg/kg/injection, schedule: Q04DX003 (ip), vehicle: saline): 100 % of control | T/C (dose: 112.5 mg/kg/injection, schedule: Q01DX001 (ip), vehicle: saline): 100 % of control | T/C (dose: 112.5 mg/kg/injection, schedule: Q04DX003 (ip), vehicle: saline): 95 % of control | T/C (dose: 150.0 mg/kg/injection, schedule: Q01DX009 (ip), vehicle: alcohol): 95 % of control | T/C (dose: 225.0 mg/kg/injection, schedule: Q01DX001 (ip), vehicle: saline): 90 % of control | T/C (dose: 225.0 mg/kg/injection, schedule: Q01DX009 (ip), vehicle: alcohol): 100 % of control | T/C (dose: 225.0 mg/kg/injection, schedule: Q04DX003 (ip), vehicle: saline): 90 % of control

CC(Br)C(=O)NC(Cc1ccccc1)C(=O)O (configuration not stated)
T/C [7]: 95 % of control | T/C (dose: 100.0 mg/kg/injection, schedule: Q04DX003 (ip), vehicle: alcohol): 100 % of control | T/C [10]: 118 % of control | T/C [8]: 100 % of control | T/C (dose: 200.0 mg/kg/injection, schedule: Q04DX003 (ip), vehicle: alcohol): 104 % of control | T/C [11]: 100 % of control | T/C [9]: 104 % of control | T/C (dose: 400.0 mg/kg/injection, schedule: Q04DX003 (ip), vehicle: alcohol): 109 % of control | T/C [12]: 109 % of control

CCOC(=O)NCCCNC(=O)OCC
T/C [4]: 115 % of control | T/C [5]: 115 % of control | T/C [6]: 105 % of control
